This note sets out measurements from US8592464B2, “Nitric oxide furoxan derivative compounds endowed with antitumoral activity” (Humanitas Mirasole S.p.A., priority 2009, dated 2013).

For one series, the system named is cytolytic activity of CD8+ T cells against allogenic (MBL-2) target cells. The experiment in a line: Chromium release assay (in vitro cytotoxicity), B6+C26GM culture: immunosuppressed splenocytes from tumor-bearing mice. Type of series: cell-based. As to conditions: strong immunosuppressive conditions, 5-h 51Cr-release.
As for `NC(=O)c1c(COC(=O)c2cccc(O)c2)no[n+]1[O-]` [AT47], the “Range of concentration to rescue cytolytic activity” value (“Range of concentration” below) is 50 µM.
The same measure, in the same setting: next, `CC(=O)OCc1no[n+]([O-])c1C(N)=O` [AT24]: “INEFFECTIVE”; `NC(=O)c1c(COc2ccc(C(=O)O)c(O)c2)no[n+]1[O-]` [AT43]: “INEFFECTIVE”.
Still for that read-out and setting: next, `NC(=O)c1c(COC(=O)c2cccnc2)no[n+]1[O-]` [AT112]: 200 µM; `CC(=O)OCc1no[n+]([O-])c1C#N` [AT25]: “INEFFECTIVE”; `NC(=O)c1c(COC(=O)/C=C/c2ccccc2)no[n+]1[O-]` [AT110]: 100 µM.
Still for that read-out and setting: the result for `NC(=O)c1c(COC(=O)c2ccccc2O)no[n+]1[O-]` [AT38] reads 25 µM; that for `NC(=O)c1c(COC(=O)/C=C/c2ccccc2O)no[n+]1[O-]` [AT113], 100 µM.
Consider `NC(=O)c1c(COC(=O)c2ccc(O)cc2)no[n+]1[O-]` [AT45], for which the “Range of concentration” value came to 100 µM.
Same read-out and setting: next, `NC(=O)c1c(COC(=O)c2ccccc2)no[n+]1[O-]` [AT44]: “INEFFECTIVE”; `CC(=O)Oc1ccccc1C(=O)OCc1no[n+]([O-])c1C(N)=O` [AT27]: 25 µM.
Same read-out and setting: the result for `NC(=O)c1c(S(=O)(=O)c2ccccc2)no[n+]1[O-]` [AT94] reads “INEFFECTIVE”.

Test system in another series: not given
Test: not given
Settings: not given
In turn, `NC(=O)c1c(COC(=O)c2ccc(O)cc2)no[n+]1[O-]` (hydrate or solvate) showed a melting point of 241 to 242 °C.
As to `NC(=O)c1c(COC(=O)c2ccccc2O)no[n+]1[O-]` (hydrate or solvate), the melting point was 176 to 177 °C.
Regarding `NC(=O)c1c(COC(=O)c2ccccc2)no[n+]1[O-]` (hydrate or solvate), the melting point was in the range of 163 to 165 °C.
Still for that read-out and setting: next, `N#Cc1ccc(C(=O)OCc2no[n+]([O-])c2C(N)=O)cc1`: 190 to 191 °C; `NC(=O)c1c(COC(=O)c2ccc(Cl)cc2)no[n+]1[O-]`: 171 to 172 °C; `Cc1ccc(C(=O)OCc2no[n+]([O-])c2C(N)=O)cc1` (hydrate or solvate): 149 to 150 °C.
On the same count and under the same terms, next, `NC(=O)c1c(COC(=O)c2ccc([N+](=O)[O-])cc2)no[n+]1[O-]` (hydrate or solvate): 172 to 173 °C; `NC(=O)c1c(COC(=O)c2ccc(F)cc2)no[n+]1[O-]` (hydrate or solvate): 163 to 164 °C; `NC(=O)c1c(COC(=O)c2cccc(O)c2)no[n+]1[O-]` (hydrate or solvate): 203 to 204 °C.
On the same count and under the same terms, the result for `NC(=O)c1c(COC(=O)c2ccc(N)cc2)no[n+]1[O-]` (hydrate or solvate) reads 206 to 208 °C; that for `COc1ccc(C(=O)OCc2no[n+]([O-])c2C(N)=O)cc1` (hydrate or solvate), 175 to 176 °C.

The subject of the next series is coloncarcinoma26. The experiment in a line: Immunohistochemistry of tumors of tumor-bearing mice after oral AT38. As to conditions: 10, 30 and 100 mg/kg/day orally for nine days; compared to untreated controls. In kind it is in vivo, BALB/c mice.
As for `NC(=O)c1c(COC(=O)c2ccccc2O)no[n+]1[O-]` [AT38], the “CD3+ T tumor infiltrating lymphocytes” value is on record as “enhancement” and the nitrotyrosine staining entry is “strong reduction”.

For a further series, the system named is cytolytic activity of CD8+ T cells against allogenic (MBL-2) target cells. Nature of the series: Chromium release assay (in vitro cytotoxicity), B6+Balb+3% CD11b+ mixed leucocytes culture. Type of series: cell-based, mice. As to conditions: 5-h 51Cr-release.
For the compound `CC(=O)OCc1no[n+]([O-])c1C(N)=O` [AT24], the “Range of concentration” value was “INEFFECTIVE”.
Consider `NC(=O)c1c(COC(=O)c2ccc(O)cc2)no[n+]1[O-]` [AT45], for which the “Range of concentration” value came out at 72 µM.
Same read-out and setting: next, `NC(=O)c1c(COC(=O)c2ccccc2)no[n+]1[O-]` [AT44]: 76 µM.

One may read the melting point as the temperature of the solid-liquid transition.
